Test results taken from article PMC10223120, “α-Viniferin-Induced Apoptosis through Downregulation of SIRT1 in Non-Small Cell Lung Cancer Cells” (Pharmaceuticals, 2023).

Key:
human SIRT1 enzyme = system: human SIRT1 enzyme; design: method as in doi:10.1177/1934578X1801301130; details: cited from earlier work
NCI-H460 cells [1] = test: MTT cell viability assay, NCI-H460 cells; format: cell-based, human
Procedure: (§1) The Bioresource Collection and Research Center (BCRC) in Hsinchu, Taiwan provided the NCI-H460 and A549 cell lines, which were cultured in DMEM supplemented with 10% FBS, 100 U/mL penicillin A, and 100 U/mL streptomycin. These cells were kept at a temperature of 37 °C with 5% CO2 and a humidified air environment.
(§2) To investigate the impact of α-viniferin (0–50 μM), ε-viniferin (0–50 μM), and signal transduction inhibitors (20 μM PD98059, 10 μM SB431542, 20 μM SP600125, 20 μΜ LY294002, 10 μM BIRB796, or 10 μM GO6976) on the viability of NCI-H460 or A549 cells were investigated using MTT assay. NCI-H460 or A549 cells were treated with various concentrations of α-viniferin, ε-viniferin, and signal transduction inhibitors and were incubated for 24, 48, or 72 h. Following incubation, 5 mg/mL MTT solution in phosphate-buffered saline (PBS) was added to each well, and the plate was further incubated for 4 h at 37 °C. Following this, the medium was aspirated, and DMSO was utilized to dissolve the MTT-formazan crystals. Finally, the solution was analyzed using a microplate reader at a wavelength of 540 nm.

A549 = system: A549; design: method as in PMID 34728247; details: A549 cells; cited from earlier work
[2] = Serum AST, CPK, LDH and creatinine in xenograft-bearing mice; format: in vivo, BALB/c nude mice; details: 5 mg/kg i.p., five times every week, four weeks
Procedure: (§3) The male BALB/c nude mice utilized in this investigation were obtained from the National Laboratory Animal Breeding and Research Center situated in Taiwan. All animal experimentation procedures were conducted in accordance with National Tsinghua University’s Institutional Animal Care and Use Committee Guidelines (Protocol No. 107049). For this study, the hind leg of five-week-old nude mice was subcutaneously implanted with 1 × 10^6 NCI-H460 cells. Treatment was initiated only after the tumors had grown to a volume of 100–200 mm^3. Subsequently, the nude mice with NCI-H460-cell xenografts were randomly allocated into two groups: experimental and control, each comprising five mice. The experimental group was administered 5 mg/kg α-viniferin through intraperitoneal injection five times every week, while the control group was administered PBS. After four weeks, the mice were euthanized. Tumor weight, vimentin expression, histopathological changes and apoptosis in the tumor section were evaluated using immunohistochemistry (IHC) staining, hematoxylin and eosin staining, and TUNEL assay. The quantification of AST, CPK, LDH, and creatinine levels was carried out following previously described procedures. Briefly, AST, LDH, CPK, and creatinine levels were quantified using commercial kits (Wako Pure Chemical Industries, Osaka, Japan).

NCI-H460 cells [3] = test: Western blot of apoptosis-related proteins; format: cell-based, human; details: 10, 15, 20, 30 μM, 24 h
Procedure: The western blot analysis was conducted to check the expression levels of cleaved caspase-3, cleaved PARP, SIRT1, vimentin, and AKT phosphorylation in NCI-H460 cells after treatment with α-viniferin at various concentrations (0, 10, 15, 20, and 30 μM) for 24 h. After treatment, the cells in a 10-cm plate were lysed in an ice-cold lysis buffer, containing protease and […] inhibitors. The Bio-Rad protein assay kit (Bio-Rad Laboratories, Hercules, CA, USA) was utilized to measure the protein concentration in each lysate. Equal amounts of protein (50 μg) were loaded onto each lane, separated using sodium dodecyl sulfate-polyacrylamide gel electrophoresis (SDS-PAGE), and subsequently transferred onto polyvinylidene fluoride (PVDF) membranes. First, the membranes were blocked using 1% BSA in PBS at room temperature for 1 h. Then, the membranes incubated with primary antibodies against full length caspase-3, activated caspase-3, full length PARP, cleaved PARP, SIRT1, vimentin, and AKT phosphorylation, and followed by secondary antibodies conjugated with horseradish peroxidase were added to the samples. Finally, the immunoreactive bands were visualized using an enhanced chemiluminescence (ECL) detection system.

NSCLC cells = system: NSCLC cells; design: method as in PMID 35684095; details: cited from earlier work
NCI-H460 cells [4] = test: Annexin V/7-AAD double staining, flow cytometry; format: cell-based, human; details: 24 h, control 5.3%
Procedure: To investigate the molecular mechanism by which α-viniferin affects NCI-H460 cells, the presence of apoptotic and necrotic cells was analyzed using double staining with annexin V and 7-aminoactinomycin D (7-AAD). Annexin V, which binds to phosphatidylserine (PS), is used as a marker of early-stage apoptosis. The 7-ADD is a fluorescent DNA dye that is excluded from viable cells with intact membranes but can penetrate the plasma membrane of apoptotic and necrotic cells. Double staining with both annexin V and 7-AAD can differentiate between cells in different stages of apoptosis and necrosis. Specifically, cells that are annexin V+/7-AAD- are in early apoptosis, cells that are annexin V+/7-AAD+ are in late apoptosis, and cells that are annexin V-/7-AAD+ are in necrosis. Cells that are annexin V-/7-AAD- are considered viable. […] These findings implied dose-dependent induction of apoptosis by α-viniferin in NCI-H460 cells. The mechanism behind α-viniferin-induced apoptosis in NCI-H460 cells merits further investigation.
The annexin V and 7-ADD double staining was utilized to detect apoptotic and necrotic cells. NCI-H460 cells were treated with α-viniferin at various concentrations (0, 5, 10, 20, and 30 μM) for 24 h. Following treatment, the cells were collected by trypsinization and suspended in a warm medium. The cells in a suspension were centrifuged at 2000× g for 5 min, and the resulting supernatant was removed, leaving the cell pellets. The pellets were subsequently resuspended in 200 µL of PBS and were fixed by adding […]. Next, the cell pellets that had been fixed were resuspended in 500 µL of 1 × annexin V-FITC Binding Buffer, to which 5 µL each of annexin V-FITC and 7-AAD staining reagents were added. The samples were then vortexed gently and incubated for 15 min at 4 °C in the dark. Finally, the samples were analyzed using a BD FACScan™ flow cytometer.

A549 lung cancer cells = system: A549 lung cancer cells; design: method as in PMID 34728247; details: cited from earlier work
[5] = system: osteosarcoma cells (U2OS); design: method as in PMID 34728247; details: cited from earlier work
osteosarcoma cells (HOS) = system: osteosarcoma cells (HOS); design: method as in PMID 34728247; details: cited from earlier work
NCI-H460-cell xenografts = test: In vivo xenograft tumor growth experiment; design: species or system BALB/c nude mice
Procedure: as §3

NCI-H460 cells [6] = test: Immunofluorescence assay of AIF localization (Hoechst 33258 nuclear stain); format: cell-based, human; details: 5, 10, 15, 20, 30 μM, 24 h
Procedure: The immunofluorescence assay was conducted following the method described in a previous study to detect the localization of AIF in NCI-H460 cells after treatment with α-viniferin at various concentrations (0, 5, 10, 15, 20, and 30 μM) for 24 h. After treatment, the cells in a 6-well plate were washed with PBS, and fixed immediately with 4% formaldehyde at room temperature for 15 min. Then, NCI-H460 cells were treated with 0.1% Triton X-100 in PBS at room temperature for 15 min to achieve permeabilization. After that, NCI-H460 cells were incubated with anti-AIF primary antibodies at 4 °C for 24 h, followed by incubation with secondary antibodies conjugated with fluorescein isothiocyanate at 37 °C for 1 h. To stain the cell nuclei, NCI-H460 cells were treated with a solution containing […] Hoechst 33,258 for 30 min. After washing the cells with PBS, they were mounted onto a glass slide for visualization. Confocal laser scanning microscopy was employed to capture the images. The mean fluorescence intensity, which represented the protein level, was analyzed using the Image J software.

A549 cells = test: MTT cell viability assay, A549 cells; format: cell-based, human; details: low doses (20 μM)
Procedure: as §1, §2

[7] = 5 mg/kg i.p., five times every week, four weeks, compared with control

Compound: Oc1ccc([C@H]2Oc3cc(O)cc(/C=C/c4ccc5c(c4)[C@@H](c4cc(O)cc6c4[C@H](c4cc(O)cc(O)c4)[C@@H](c4ccc(O)cc4)O6)[C@H](c4ccc(O)cc4)O5)c3[C@@H]2c2cc(O)cc(O)c2)cc1 [(−)-vitisin B]
- activity of the human SIRT1 enzyme (human SIRT1 enzyme): inhibit the activity

Compound: O=c1cc(N2CCOCC2)oc2c(-c3ccccc3)cccc12 [LY294002, reference compound]
- cell viability (NCI-H460 cells [1]; inhibitor 20 μM, 24 h): decreased cell viability

Compound: COc1cccc(-c2cc(=O)c3ccccc3o2)c1N [PD98059, reference compound]
- cell viability (NCI-H460 cells [1]; inhibitor 20 μM, 24 h): decreased cell viability

Compound: Oc1ccc([C@H]2c3c(O)cc(O)cc3[C@H]3c4c(cc(O)cc4[C@@H]2c2cc(/C=C/c4cc(O)cc5c4[C@H](c4cc(O)cc(O)c4)[C@@H](c4ccc(O)cc4)O5)ccc2O)O[C@@H]3c2ccc(O)cc2)cc1 [vitisin A]
- activity of the human SIRT1 enzyme (human SIRT1 enzyme): inhibit the activity

Compound: Oc1ccc([C@H]2Oc3cc(O)cc4c3[C@@H]2c2cc(O)cc3c2[C@@H](c2cc(O)cc5c2[C@@H]4[C@H](c2ccc(O)cc2)O5)[C@H](c2ccc(O)cc2)O3)cc1 [α-viniferin, α-Viniferin]
- apoptosis (A549): induce apoptosis
- liver or kidney function (serum AST, CPK, LDH, creatinine) [2]: no negative impact
- cell viability (NCI-H460 cells [1]; low doses 10–20 μM, 24, 48, 72 h): inhibited cell viability in a dose- and time-dependent manner
- protein expression level of SIRT1 (NCI-H460 cells [3]): decreased the protein expression levels
- protein expression level of vimentin (NCI-H460 cells [3]): decreased the protein expression levels
- protein expression of activated caspase-3 (NCI-H460 cells [3]): increased the protein expression
- protein expression of cleaved PARP (NCI-H460 cells [3]): increased the protein expression
- AKT phosphorylation (NCI-H460 cells [3]; normalized to AKT): decreased the protein expression levels
- TGF-induced vimentin expression (NSCLC cells): inhibit TGF-induced vimentin expression
- apoptotic cells (early + late apoptotic cells) (NCI-H460 cells [4]; 5 μM): 7.0%
- apoptotic cells (early + late apoptotic cells) (NCI-H460 cells [4]; 10 μM): 8.3%
- apoptotic cells (early + late apoptotic cells) (NCI-H460 cells [4]; 20 μM): 22.3%
- apoptotic cells (early + late apoptotic cells) (NCI-H460 cells [4]; 30 μM): 35.0%
- epithelial mesenchymal transition (EMT) (A549 lung cancer cells): inhibit epithelial mesenchymal transition
- apoptosis [5]: induce apoptosis
- apoptosis (osteosarcoma cells (HOS)): induce apoptosis
- apoptotic cells in tumor tissue (TUNEL staining) (NCI-H460-cell xenografts; 5 mg/kg i.p., five times every week, four weeks): increased numbers of apoptotic cells
- tumor volume (NCI-H460-cell xenografts; [7]): more significant reduction
- tumor weight (NCI-H460-cell xenografts; [7]): more significant reduction
- vimentin expression in tumor (IHC) (NCI-H460-cell xenografts; [7]): reduced
- tumor growth (NCI-H460-cell xenografts; 5 mg/kg, i.p., five days/week): suppression of tumor growth
- AIF translocation to the nucleus (NCI-H460 cells [6]): translocated to the nucleus
- DNA fragmentation (NCI-H460 cells [6]): caused DNA fragmentation

Compound: Oc1ccc(/C=C/c2cc(O)cc3c2[C@@H](c2cc(O)cc(O)c2)[C@H](c2ccc(O)cc2)O3)cc1 [ε-viniferin]
- anti-proliferative effect (NCI-H460 cells [1]; 20 μM): did not exhibit potent anti-proliferative effects
- anti-proliferative effect (NCI-H460 cells [1]; higher concentrations (above 20 μM)): did demonstrate such effects
- cell viability (A549 cells): inhibited A549 cell viability

Compound: (+)-hopeaphenol
- activity of the human SIRT1 enzyme (human SIRT1 enzyme): inhibit the activity
